Reference: patent publication US20250302775A1, “METHODS FOR THE TREATMENT OF DEPRESSION” (Autobahn Therapeutics, Inc., priority 2022, published 2025)

These compounds were tested against T1, FAAH (Mus musculus, UniProt O08914) (assay: tissue distribution in mice after co-dosing ABX-002 with or without PFI or GFI). Settings: after prodrug (ABX-002) co-dosing, mice.
T1 construct: from tissue; host or cells: living mice (plasma, liver, brain)
T1 sequence (O08914 1-579): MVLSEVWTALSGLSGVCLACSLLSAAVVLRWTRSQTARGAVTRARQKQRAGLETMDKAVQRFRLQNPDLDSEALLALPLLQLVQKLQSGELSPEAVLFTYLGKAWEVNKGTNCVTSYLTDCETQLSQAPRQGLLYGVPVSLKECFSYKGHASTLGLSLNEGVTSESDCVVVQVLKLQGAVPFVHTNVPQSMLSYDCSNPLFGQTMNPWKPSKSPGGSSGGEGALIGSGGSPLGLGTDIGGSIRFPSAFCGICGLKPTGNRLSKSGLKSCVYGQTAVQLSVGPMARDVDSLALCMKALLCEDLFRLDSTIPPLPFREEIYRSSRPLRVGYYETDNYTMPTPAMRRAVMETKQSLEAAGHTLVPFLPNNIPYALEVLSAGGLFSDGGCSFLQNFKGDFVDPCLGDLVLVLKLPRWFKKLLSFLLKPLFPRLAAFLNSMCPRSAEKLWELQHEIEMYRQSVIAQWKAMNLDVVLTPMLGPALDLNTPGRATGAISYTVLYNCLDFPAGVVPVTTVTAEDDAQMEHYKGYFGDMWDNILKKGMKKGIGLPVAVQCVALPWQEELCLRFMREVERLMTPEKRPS
Type: in vivo
Protocol: The ability of globally-penetrant and peripherally-restricted FAAH inhibitors (GFI & PFI, respectively) to alter distribution of ABX-002 and ABX-002A was assessed.
Table 5 depicts the inhibition of active metabolite (LL-650177 or PF-044578454) in AUC in the plasma, liver, and brain after prodrug (ABX-002) co-dosing. Tissue distribution studies in mice confirm global & peripheral inhibition of FAAH.

Compound	inhibition of active metabolite AUC, Brain [%]	inhibition of active metabolite AUC, Liver [%]	inhibition of active metabolite AUC, Plasma [%]
O=C(Nc1cccnn1)N1CCC(=Cc2cccc(Oc3ccc(C(F)(F)F)cn3)c2)CC1 [PF-04457845]	83	94	94

Same assay, conditions: co-dosing with PFI or GFI, mice

Compound	prodrug levels in plasma, liver and brain with FAAH inhibition
CNC(=O)COc1cc(Cl)c(Cc2ccc(O)c(C(C)C)c2)c(Cl)c1 [Compound 1]	did not change or slightly increased

Same assay, conditions: peripheral or global FAAH inhibitor

Compound	Distribution
O=C(Nc1cccnn1)N1CCC(=Cc2cccc(Oc3ccc(C(F)(F)F)cn3)c2)CC1 [PF-04457845]	Global
NC(=O)c1cccc(-c2cc(OC(=O)NC3CCCCC3)ccc2O)c1 [URB937]	Peripheral

These compounds were tested against T2, recombinant human FAAH (Homo sapiens, UniProt O00519) (assay: FAAH inhibition, apparent IC50 with AMC substrate). Settings: 30 min preincubation with recombinant human FAAH and AMC; read-out: Apparent IC50s.
T2 sequence (O00519 1-579): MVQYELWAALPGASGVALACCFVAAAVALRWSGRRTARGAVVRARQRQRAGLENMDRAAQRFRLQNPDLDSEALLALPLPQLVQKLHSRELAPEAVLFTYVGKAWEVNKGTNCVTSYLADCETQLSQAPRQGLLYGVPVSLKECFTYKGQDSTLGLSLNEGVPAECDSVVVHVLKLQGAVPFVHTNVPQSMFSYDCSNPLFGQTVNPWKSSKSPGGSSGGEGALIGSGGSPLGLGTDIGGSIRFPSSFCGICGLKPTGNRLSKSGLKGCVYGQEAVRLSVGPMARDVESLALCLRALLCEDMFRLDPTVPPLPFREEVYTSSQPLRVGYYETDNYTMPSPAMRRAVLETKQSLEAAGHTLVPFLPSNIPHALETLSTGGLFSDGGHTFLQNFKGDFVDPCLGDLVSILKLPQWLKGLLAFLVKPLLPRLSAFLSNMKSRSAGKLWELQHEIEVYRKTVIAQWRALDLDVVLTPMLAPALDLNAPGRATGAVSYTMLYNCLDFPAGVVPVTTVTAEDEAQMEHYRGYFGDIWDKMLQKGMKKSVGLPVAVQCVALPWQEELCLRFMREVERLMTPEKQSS
Type: biochemical

Compound	IC50 [nM]
O=C(Nc1cccnn1)N1CCC(=Cc2cccc(Oc3ccc(C(F)(F)F)cn3)c2)CC1 [PF-04457845]	3
NC(=O)c1cccc(-c2cc(OC(=O)NC3CCCCC3)ccc2O)c1 [URB937]	69

What follows are compounds tested against T3, recombinant human FAAH (rhFAAH) (Homo sapiens, UniProt O00519) (assay: FAAH substrate evaluation: formation of acid metabolite). Settings: 0.5 ng/μL rhFAAH, 1 μM test compound, room temperature, pH 8.0, 0-60 minutes.
T3 construct: purchased Cayman Chemical (Ann Arbor, MI, USA)
T3 sequence (O00519 1-579): T2 sequence (O00519 1-579)
Type: biochemical
Protocol: Purified recombinant human FAAH (rhFAAH) was purchased from Cayman Chemical (Ann Arbor, MI, USA). The total volume for each incubation was 400 μL containing a final 0.5 ng/μL rhFAAH, 1 μM test compound, 1.25% ethanol or 1 μM PF-3845 (FAAH inhibitor), and 0.1% bovine serum albumin in Tris-EDTA buffer at pH 8.0). The positive control was LL-341001. The incubation was conducted at the room temperature. At 0, 5, 15, 30 and 60 minutes, an aliquot of 30 μL reaction mixtures was removed and mixed with 300 μL acetonitrile containing 5 ng/mL terfenadine and 10 ng/mL tolbutamide as internal standards to quench the reaction. The resulting mixture was centrifuged at 4000 rpm, 4° C. for 15 minutes, and 100 μL supernatant was ready for LC-MS/MS analysis to measure the formation of acid metabolite.
Acquity Ultra Performance LC system from Waters was used for sample analysis. The chromatography was performed on a reverse phase Kinetex 2.6 μm C18 column, 2.1×30 mm, 100 Å. The mobile phase A comprised of 0.1% formic acid in water and mobile phase B comprised of 0.1% formic acid in acetonitrile with a 2-min run time at the flow rate of 0.8 mL/min for the acid metabolite from positive control or a 1.5 min run time at the flow rate of 0.9 mL/min for the acid metabolite of test compounds. The mass spectrometer (API-5500 and API Q Trap 4000 Applied Biosystems/MDS SCIEX Instruments, Framingham, MA, USA) was operated under ESI positive or negative ion MRM mode.
The formation of acid metabolite was monitored and quantified using one calibration point of 1 μM. The observed rate constant (ke) for the acid metabolite formation was calculated by plotting the metabolite concentration versus time of incubation with the slope being ke and is shown in Table 1.

Compound	ke (observed rate constant for the acid metabolite formation)
CNC(=O)COc1cc(Cl)c(Cc2ccc(O)c(C(C)C)c2)c(Cl)c1 [Compound 1]	A (A = ke is more than or equal to 0.1)
C=CCN(C)C(=O)COc1cc(Cl)c(Cc2ccc(O)c(C(C)C)c2)c(Cl)c1 [Compound 128]	B (B = ke is less than 0.1 and more than 0)
CC(C)c1cc(Cc2c(Cl)cc(OCC(=O)NCCN)cc2Cl)ccc1O [Compound 12]	B (B = ke is less than 0.1 and more than 0)
CC(C)c1cc(Cc2c(Cl)cc(OCC(=O)Nc3cccc(O)c3)cc2Cl)ccc1O [Compound 21]	A (A = ke is more than or equal to 0.1)
CC(C)c1cc(Cc2c(Cl)cc(OCC(=O)NC(CO)CO)cc2Cl)ccc1O [Compound 11]	B (B = ke is less than 0.1 and more than 0)
CC(C)c1cc(Cc2c(Cl)cc(OCC(=O)NCC#N)cc2Cl)ccc1O [Compound 29]	A (A = ke is more than or equal to 0.1)
CC(C)c1cc(Cc2c(Cl)cc(OCC(=O)N(C)C(C)C)cc2Cl)ccc1O [Compound 122]	B (B = ke is less than 0.1 and more than 0)
CC(C)c1cc(Cc2c(Cl)cc(OCC(=O)NCCc3ccc(O)c(O)c3)cc2Cl)ccc1O [Compound 24]	B (B = ke is less than 0.1 and more than 0)
CC(C)c1cc(Cc2c(Cl)cc(OCC(=O)NC3CC3)cc2Cl)ccc1O [Compound 17]	A (A = ke is more than or equal to 0.1)
CCN(C)C(=O)COc1cc(Cl)c(Cc2ccc(O)c(C(C)C)c2F)c(Cl)c1 [Compound 34]	C (C = ke is 0)
CC(C)c1cc(Cc2c(Cl)cc(OCC(=O)NC3COC3)cc2Cl)ccc1O [Compound 18]	A (A = ke is more than or equal to 0.1)
CNC(=O)COc1cc(F)c(Cc2ccc(O)c(C(C)C)c2)c(Cl)c1F [Compound 42]	A (A = ke is more than or equal to 0.1)
Cc1noc(NC(=O)COc2cc(Cl)c(Cc3ccc(O)c(C(C)C)c3)c(Cl)c2)c1C [Compound 103]	A (A = ke is more than or equal to 0.1)
C#CCNC(=O)COc1cc(Cl)c(Cc2ccc(O)c(C(C)C)c2)c(Cl)c1 [Compound 5]	A (A = ke is more than or equal to 0.1)
CCNC(=O)COc1cc(Cl)c(Cc2ccc(O)c(C(C)C)c2)c(Cl)c1 [Compound 2]	A (A = ke is more than or equal to 0.1)
CC(C)c1cc(Cc2c(Cl)cc(OCC(=O)Nc3ccccc3O)cc2Cl)ccc1O [Compound 20]	A (A = ke is more than or equal to 0.1)

Compound	ke (observed rate constant for the acid metabolite formation)
CC(C)CN(C)C(=O)COc1cc(Cl)c(Cc2ccc(O)c(C(C)C)c2)c(Cl)c1 [Compound 120]	C (C = ke is 0)
CC(C)c1cc(Cc2c(Cl)cc(OCC(=O)NC[C@H](C)O)cc2Cl)ccc1O [Compound 8]	B (B = ke is less than 0.1 and more than 0)
CC(C)c1c(O)ccc(Cc2c(Cl)cc(OCC(=O)NCCF)cc2Cl)c1F [Compound 36]	A (A = ke is more than or equal to 0.1)
CC(C)c1cc(Cc2c(Cl)cc(OCC(=O)NC[C@@H](C)O)cc2Cl)ccc1O [Compound 7]	B (B = ke is less than 0.1 and more than 0)
CC(C)c1cc(Cc2c(Cl)cc(OCC(=O)N3CCOCC3)cc2Cl)ccc1O [Compound 133]	A (A = ke is more than or equal to 0.1)
CONC(=O)COc1cc(Cl)c(Cc2ccc(O)c(C(C)C)c2)c(Cl)c1 [Compound 28]	A (A = ke is more than or equal to 0.1)
CC(C)c1c(O)ccc(Cc2c(Cl)cc(OCC(=O)N(C)C)cc2Cl)c1F [Compound 32]	A (A = ke is more than or equal to 0.1)
CCCN(C)C(=O)COc1cc(Cl)c(Cc2ccc(O)c(C(C)C)c2)c(Cl)c1 [Compound 129]	B (B = ke is less than 0.1 and more than 0)
CC(C)c1cc(Cc2c(Cl)cc(OCC(=O)NN)cc2Cl)ccc1O [Compound 27]	A (A = ke is more than or equal to 0.1)
C=CCNC(=O)COc1cc(Cl)c(Cc2ccc(O)c(C(C)C)c2)c(Cl)c1 [Compound 4]	A (A = ke is more than or equal to 0.1)
CON(C)C(=O)COc1cc(Cl)c(Cc2ccc(O)c(C(C)C)c2F)c(Cl)c1 [Compound 44]	A (A = ke is more than or equal to 0.1)
CC(C)NC(=O)COc1cc(Cl)c(Cc2ccc(O)c(C(C)C)c2)c(Cl)c1 [Compound 126]	A (A = ke is more than or equal to 0.1)
CC(C)c1cc(Cc2c(Cl)cc(OCC(=O)Nc3ccnnc3)cc2Cl)ccc1O [Compound 116]	A (A = ke is more than or equal to 0.1)
CC(C)c1cc(Cc2c(Cl)cc(OCC(=O)N(C)CCF)cc2Cl)ccc1O [Compound 125]	B (B = ke is less than 0.1 and more than 0)
CC(C)c1cc(Cc2c(Cl)cc(OCC(=O)Nc3cnccn3)cc2Cl)ccc1O [Compound 102]	A (A = ke is more than or equal to 0.1)
CC(C)c1cc(Cc2c(Cl)cc(OCC(=O)N(C)N(C)C)cc2Cl)ccc1O [Compound 108]	B (B = ke is less than 0.1 and more than 0)
